The subject of the test is IFN-a/Jak1 Tyk2. In words: Co-stimulation assay in lysed whole blood: IFNa (JAK1/TYK2) stimulated STAT1 phosphorylation. Format: cell-based. As to conditions: Homo sapiens, 20 min, 100 ng/mL IFNa (with 10 ng/mL GM-CSF), pSTAT by flow cytometry. As to the method: Example 12: Co-Stimulation Assay in Lysed Whole Blood; JAK2: GM-CSF Stimulated STAT5 Phosphorylation and JAK1/TYK2 Stimulated STAT1 Phosphorylation Assay
Human Blood Lysis Using Abcam's RBC Lysis Buffer
Dilute RBC lysis buffer to 1× in distilled water. Add 2 mL blood to 38 mL of 1×RBC-lysis buffer. Incubate for 15 mins at RT, in dark. Spin at 300 g, 5 mins, to collect the pellet. Re-lyse if necessary. Re-suspend pellet in 5 mL of cRPMI.
Compound and Cytokine Treatment
Aliquot 80 μL of lysed human blood in to wells of 96 deep-well plate. Add 10 μl of (10× conc.) of different concentrations of compounds to all wells except controls (unstained and unstimulated) and mix it with the help of 100 uL multichannel. Add 10 uL of RPMI media in controls. For dilution of compounds and dilution range please refer Appendix. Incubate on water bath or CO2 incubator for 1 hour at 37° C. Add 10 μl of (10× conc.) of cytokine mix (GM-CSF and IFNa) (final conc.10 ng/mL of GM-CSF and 100 ng/mL of IFNa) to each well except unstimulated and unstained controls and incubate further for 20 minutes on water bath at 37° C.
Add 900 μL of prewarmed 1× Fix/Lyse solution (Appendix) and mix it properly using 1000 μl multichannel, incubate further on water bath at 37° C. for 10 minutes (which includes time of addition). Centrifuge at 800×g for 5 minutes at 40° C.; remove 900 uL of supernatant and add 900 μL of 1×PBS. Centrifuge at 800×g for 5 minutes at 40° C., remove 900 μL of supernatant. Wash one more time with 900 μL of PBS (optional) and resuspend pellets in 100 uL of PBS.
Disrupt the pellet by gentle tapping and resuspend in 1000 μL of BD Phosflow Perm Buffer III and incubate plate on ice for 30 minutes. Centrifuge plate at 800×g for 5 minutes at 40° C. Wash two more times with 1000 μL of BD Pharmingen Stain Buffer.
Disrupt the pellet by gentle tapping. Resuspend pellets in 100 uL of Stain Buffer and add 5 μL of pSTAT5_AF488 Ab and 5 uL of pSTAT_PE in all wells except unstained control and mix properly using 200 μl multichannel, incubate overnight at […]. Add 900 μL of wash buffer and centrifuge at 1800 rpm for 3 minutes at 40° C. Wash one more time with 1000 μL of BD Pharmingen Stain Buffer. Finally resuspend the pellet in 300 uL of BD Pharmingen Stain Buffer. Transfer the cells to 96-well v-bottom plate and acquire the cells in Beckman Coulter CytExpert. Acquiring cells in Flow Cytometer: Keep the threshold value to 250 and cell concentration should not exceed 100-500 cells/μL. Acquire at least 5,000-10,000 cells.
RPMI 1640 Complete Medium: RPMI 1640 media+10% FBS.
Cytokine dilution: 1) GM-CSF Stock at 100 ug/mL. Prepare an intermediate dilution of 1 ug/mL by adding 2 uL of stock into 198 uL of cRPMI. Further dilute to 100 ng/mL by adding 100 uL of the intermediate stock to 900 uL of cRPMI. 2) IFNa Stock at 200 ug/mL. Dilute IFNa stock 1:200 by adding 5 uL of stock into the 1000 uL of 100 ng/mL GM-CSF working stock as above to give a combined working stock of 1000 ng/mL of IFNa and 100 ng/mL GM-CSF (10×). Keep it on ice until used.
Lyse/Fix buffer preparation: Dilute 5× Lyse/Fix buffer to 1× using MQ water and keep at 37° C. until used.
BD Phosflow perm buffer III: Keep on ice/fridge.

pIC50: −log10 of the molar value. Bounds are passed on as bounds.

Compound `CNc1cc(Nc2cccc3c2OCCO3)nc2c(NC(=O)NC3CC3O)cnn12` (stereo not shown) [Compound 32, 1-(5-((2,3-dihydrobenzo[b][1,4]dioxin-5-yl)amino)-7-(methylamino)pyrazolo[1,5-a]pyrimidin-3-yl)-3-(2-hydroxycyclopropyl)urea] had a pIC50 of at most 5.00.
For `CNc1cc(Nc2cc(C#N)cc3c2OCCO3)nc2c(NC(=O)N[C@@H]3C[C@@H]3F)cnn12` [Compound 33, 1-(5-((7-cyano-2,3-dihydrobenzo[b][1,4]dioxin-5-yl)amino)-7-(methylamino)pyrazolo[1,5-a]pyrimidin-3-yl)-3-((1R,2S)-2-fluorocyclopropyl)urea] the value was over 6.00; for `CNc1cc(Nc2cccc3c2OCCO3)nc2c(NC(=O)NC3CC(F)(F)C3)cnn12` [Compound 34, 1-(3,3-difluorocyclobutyl)-3-(5-((2,3-dihydrobenzo[b][1,4]dioxin-5-yl)amino)-7-(methylamino)pyrazolo[1,5-a]pyrimidin-3-yl)urea], 5.00 to 6.00.
To `CNc1cc(Nc2cccc3c2OCCO3)nc2c(NC(=O)NC3CC(F)C3)cnn12` (stereo not shown) [Compound 35, 1-(5-((2,3-dihydrobenzo[b][1,4]dioxin-5-yl)amino)-7-(methylamino)pyrazolo[1,5-a]pyrimidin-3-yl)-3-(3-fluorocyclobutyl)urea] belongs over 6.00; to `CNc1cc(Nc2cccc3c2OCCO3)nc2c(NC(=O)NC3CC(=O)C3)cnn12` [Compound 36, 1-(5-((2,3-dihydrobenzo[b][1,4]dioxin-5-yl)amino)-7-(methylamino)pyrazolo[1,5-a]pyrimidin-3-yl)-3-(3-oxocyclobutyl)urea], over 6.00; to `CNc1cc(Nc2cc(F)cc3c2OCCO3)nc2c(NC(=O)NC3CC3F)cnn12` (stereo not shown) [Compound 37, 1-(5-((7-fluoro-2,3-dihydrobenzo[b][1,4]dioxin-5-yl)amino)-7-(methylamino)pyrazolo[1,5-a]pyrimidin-3-yl)-3-(2-fluorocyclopropyl)urea], over 6.00.
For `CNc1cc(Nc2c(F)c(F)cc(F)c2F)nc2c(NC(=O)N[C@@H]3C[C@@H]3F)cnn12` [Compound 38, 1-((1R,2S)-2-fluorocyclopropyl)-3-(7-(methylamino)-5-((2,3,5,6-tetrafluorophenyl)amino)pyrazolo [1,5-a]pyrimidin-3-yl)urea] the value was 5.00 to 6.00; for `CNc1cc(Nc2cccc3cccnc23)nc2c(NC(=O)N[C@@H]3C[C@@H]3F)cnn12` [Compound 39, 1-((1R,2S)-2-fluorocyclopropyl)-3-(7-(methylamino)-5-(quinolin-8-ylamino)pyrazolo[1,5-a]pyrimidin-3-yl)urea], over 6.00; for `[2H]C([2H])([2H])Nc1cc(Nc2cccc3c2OCCO3)nc2c(NC(=O)N[C@@H]3C[C@@H]3F)cnn12` [Compound 40, 1-(5-((2,3-dihydrobenzo[b][1,4]dioxin-5-yl)amino)-7-((methyl-d3)amino)pyrazolo[1,5-a]pyrimidin-3-yl)-3-((1R,2S)-2-fluorocyclopropyl)urea], over 6.00.
For `CNc1cc(Nc2cc(F)cc3c2OCCO3)nc2c(NC(=O)N[C@H]3C[C@@H]3F)cnn12` [Compound 41, 1-(5-((7-fluoro-2,3-dihydrobenzo[b][1,4]dioxin-5-yl)amino)-7-(methylamino)pyrazolo[1,5-a]pyrimidin-3-yl)-3-((1S,2S)-2-fluorocyclopropyl)urea], the pIC50 is over 6.00.
For `CNc1cc(Nc2cc(F)cc3c2OCCO3)nc2c(NC(=O)N[C@H]3C[C@H]3F)cnn12` [Compound 42, 1-(5-((7-fluoro-2,3-dihydrobenzo[b][1,4]dioxin-5-yl)amino)-7-(methylamino)pyrazolo[1,5-a]pyrimidin-3-yl)-3-((1S,2R)-2-fluorocyclopropyl)urea] the value was over 6.00; for `CNc1cc(Nc2cccc3c2OCCO3)nc2c(NC(=O)NC3CCC3C#N)cnn12` (stereo not shown) [Compound 43, 1-(2-cyanocyclobutyl)-3-(5-((2,3-dihydrobenzo[b][1,4]dioxin-5-yl)amino)-7-(methylamino)pyrazolo[1,5-a]pyrimidin-3-yl)urea], 5.00 to 6.00.
For `CNc1cc(Nc2cccc3nccnc23)nc2c(NC(=O)N[C@@H]3C[C@@H]3F)cnn12` [Compound 44, 1-((1R,2S)-2-fluorocyclopropyl)-3-(7-(methylamino)-5-(quinoxalin-5-ylamino)pyrazolo[1,5-a]pyrimidin-3-yl)urea] the value was over 6.00; for `CNc1cc(Nc2cccc3c2OCCO3)nc2c(NC(=O)N[C@@H]3C[C@@H]3C#N)cnn12` [Compound 45, 1-((1R,2S)-2-cyanocyclopropyl)-3-(5-((2,3-dihydrobenzo[b][1,4]dioxin-5-yl)amino)-7-(methylamino)pyrazolo[1,5-a]pyrimidin-3-yl)urea], over 6.00.
For `CNc1cc(Nc2cc(F)cc3c2OCCO3)nc2c(NC(=O)NC3CCC3C#N)cnn12` (stereo not shown) [Compound 46, 1-(2-cyanocyclobutyl)-3-(5-((7-fluoro-2,3-dihydrobenzo[b][1,4]dioxin-5-yl)amino)-7-(methylamino)pyrazolo[1,5-a]pyrimidin-3-yl)urea] the value was 5.00 to 6.00; for `CNc1cc(Nc2cccc3c2OCCO3)nc2c(NC(=O)NC3CC(CO)C3)cnn12` (stereo not shown) [Compound 47, 1-(5-((2,3-dihydrobenzo[b][1,4]dioxin-5-yl)amino)-7-(methylamino)pyrazolo[1,5-a]pyrimidin-3-yl)-3-(3-(hydroxymethyl)cyclobutyl)urea], over 6.00; for `CNc1cc(Nc2cccc3c2OCCO3)nc2c(NC(=O)NC3CC(C)(O)C3)cnn12` (stereo not shown) [Compound 48, 1-(5-((2,3-dihydrobenzo[b][1,4]dioxin-5-yl)amino)-7-(methylamino)pyrazolo[1,5-a]pyrimidin-3-yl)-3-(3-hydroxy-3-methylcyclobutyl)urea], at most 5.00.
On to `[2H]C([2H])([2H])Nc1cc(Nc2cc(F)cc3c2OCCO3)nc2c(NC(=O)N[C@@H]3C[C@@H]3F)cnn12` [Compound 49, 1-(5-((7-fluoro-2,3-dihydrobenzo[b][1,4]dioxin-5-yl)amino)-7-((methyl-d3)amino)pyrazolo[1,5-a]pyrimidin-3-yl)-3-((1R,2S)-2-fluorocyclopropyl)urea], for which the pIC50 is over 6.00.
Turning to `CNc1cc(Nc2cccc3occc23)nc2c(NC(=O)N[C@@H]3C[C@@H]3F)cnn12` [Compound 50, 1-(5-(benzofuran-4-ylamino)-7-(methylamino)pyrazolo[1,5-a]pyrimidin-3-yl)-3-((1R,2S)-2-fluorocyclopropyl)urea], the pIC50 was over 6.00.
To `CNc1cc(Nc2cc(F)cc3c2OCCO3)nc2c(NC(=O)N[C@@H]3C[C@@H]3C#N)cnn12` [Compound 51, 1-((1R,2S)-2-cyanocyclopropyl)-3-(5-((7-fluoro-2,3-dihydrobenzo[b][1,4]dioxin-5-yl)amino)-7-(methylamino)pyrazolo[1,5-a]pyrimidin-3-yl)urea] belongs over 6.00; to `CNc1c(F)c(Nc2cccc3c2OCCO3)nc2c(NC(=O)N[C@@H]3C[C@@H]3F)cnn12` [Compound 55, 1-(5-((2,3-dihydrobenzo[b][1,4]dioxin-5-yl)amino)-6-fluoro-7-(methylamino)pyrazolo[1,5-a]pyrimidin-3-yl)-3-((1R,2S)-2-fluorocyclopropyl)urea], at most 5.00; to `CNc1cc(-c2cn(C3CCOCC3)c3ncccc23)nc2c(NC(=O)N[C@H]3CC[C@H]3O)cnn12` [Compound 56, 1-((1S,2R)-2-hydroxycyclobutyl)-3-(7-(methylamino)-5-(1-(tetrahydro-2H-pyran-4-yl)-1H-pyrrolo[2,3-b]pyridin-3-yl)pyrazolo[1,5-a]pyrimidin-3-yl)urea], at most 5.00.
